Data on four compounds can be found in patent publication US11407741B2, “Compounds and their use as selective inhibitors of caspase-2” (priority 2017, dated 2022).

Where a SMILES comes first, the peptide text is derived from it.

In assay [1] the test system is hippocampal neurons intoxicated with Aβ1-42 oligomers. Put plainly: Protection against Abeta neurotoxicity in primary hippocampal neurons in microfluidic chambers. The class given is cell-based, mice. Particulars: Aβ intoxicated cells not pretreated, 6 h of intoxication, vs non-intoxicated. An excerpt:
Hippocampus are micro-dissected from E16 embryos of C57B16/J wt mice (Rene Janvier, France) in cold Gey's Balanced Salt Solution (GBSS, Sigma) supplemented with 0.1% glucose (Life technologies).
Dissected structures are digested with papain (20 U/ML in DMEM, Sigma; St. Louis, Mo., USA) and mechanically dissociated in the presence of DNAse. Hippocampal cells are then rinsed and re-suspended in DMEM (Life Technologies, Inc., Gaithersburg, Md., USA) to a final density of 18 million cells/ml in Neurobasal (Life technologies) and Glutamax (0.1% LifeTechnologies) supplemented with B27 (1/50) and penicilline/sptreptomycine 1% (Gibco).
This cell suspension is then used to fill the reservoirs of microfluidic chambers, as described (Peyrin et al, 2011 Lab Chips 11(21):3663; Deleglise et al, 2014 Acta Neuropathologica Comm. 2: 145). Microfluidic chips are placed in plastic Petri dishes containing H20-EDTA to prevent evaporation and incubated at 37° C. in a humid 5% CO2 atmosphere. The culture medium is renewed every seven days.
Oligomeric form of Aβ1-42 (Tocris Bioscience, MN, USA), is produced according to Stine W B et al (2003) in J Biol Chem 278, pp 11612-11622 and can be controlled by electron microscopy as in Deleglise B et al. in Acta Neuropathol Commun. 2014; 2: 145).
Briefly, Aβ1-42 lyophilized peptides are solubilized at 1 mM in 1, 1, 1, 3, 3, 3,-hexafluoro-2-propanol (HFIP, Sigma Aldrich). After 30 min of incubation at RT, HFIP is evaporated for 12 h under chemical hood and peptides are dried for 1 h (with a Speed Vac at 4° C.). Then, 5 mM Aβ peptide stock solutions are obtained by resolubilization at in dimethylsulfoxide (DMSO, Sigma Aldrich). To obtain oligomers, Aβ peptide stock solution is diluted in cold phenol free DMEM-F12 medium (Life Technologies) to a final concentration of 100 μM. The solution is then incubated 24 h at 4° C. Soluble Aβ oligomer fraction is collected from the supernatant after a centrifugation step at 20 000 g (10 min; 4° C.), and stored at −80° C. until use.
After 18 days of culture in micro fluidic chambers, hippocampal cells are pre-incubated for 1 h with compounds of the invention prior diluted in phenol free DMEM-F12 medium or in phenol free DMEM-F12 medium alone as a control solution. Cells are then intoxicated for 3 h to 6 h or 24 h with 10 or 100 nm of Aβ1-42 oligomers (or with phenol free DMEM-F12 medium alone as a control solution). After the intoxication step, cells are fixed in 4% paraformaldehyde (PFA, Sigma; St. Louis, Mo., USA) for 20 min RT, and labelled as explained below to evaluate synapses status, cell death or axonal degeneration.
Briefly, after the fixation step, cultures cells are washed twice with PBS+Azide 0.1% for 5 min and permeabilized for 10 min with 0.2% Triton X-100 and 0.1% BSA (Bovine Serum Albumin, Sigma) in PBS+Azide 0.1%. Saturation step is then realized by incubating cells during 30 min in PBS+Azide 0.1%+BSA1%. Primary antibodies are then added and the samples incubated at 4° C. overnight in PBS. Afterwards, samples are rinsed twice for 5 min with PBS+Azide 0.1% and further incubated with the corresponding secondary antibody together with phalloidin conjugated to Alexa Fluor 555 for 2 h RT. The chips were then rinsed twice with PBS+Azide 0.1%.
The following antibodies are used: rabbit polyclonal anti-MAP-2 (AB5622; 1/400, MILLIPORE), mouse monoclonal Anti-Bassoon SAP7F407; 1:400, Enzo LifeSciences). Species-specific secondary antibodies coupled to Alexa 350, 488 or 500 are used (1/500, Life Technologies, Inc., Gaithersburg, Md., USA). Phalloidin conjugated to Alexa Fluor 555 (1/500, EnzoLifeTechnologies) is used to stain F-actin.
Images are acquired with an Axio-observer Zl (Zeiss, Germany) fitted with a cooled CCD camera (CoolsnapHQ2, Ropert Scientific). The microscope is controlled with Metamorph and Micro-manager software. Images were analyzed using ImageJ software.

For another assay, the target named is T1, Casp-2 (Homo sapiens, UniProt P42575).
T1 construct: the Caspase-2 and Caspase-3 are human recombinant active enzymes; purchased Enzo Life ALX-201-057-U100
T1 sequence (P42575 170-325 limits assumed): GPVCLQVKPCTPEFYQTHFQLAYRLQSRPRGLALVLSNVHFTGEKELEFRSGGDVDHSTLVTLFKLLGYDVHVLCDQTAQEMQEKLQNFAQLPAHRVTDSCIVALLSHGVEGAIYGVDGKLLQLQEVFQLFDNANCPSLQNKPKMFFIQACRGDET
T1 sequence (P42575 348-452 limits assumed): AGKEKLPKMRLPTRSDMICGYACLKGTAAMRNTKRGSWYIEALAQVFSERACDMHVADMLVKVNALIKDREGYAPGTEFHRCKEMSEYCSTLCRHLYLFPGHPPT
Put plainly: Caspase-2 inhibition assay for reversible inhibitors (IC50, Ki, dilution method). The class given is biochemical. Conditions: for IC50: 30 minutes at 37° C. preincubation; for Ki: secondary plot of Lineweaver-Burk. As for the experimental part:
(§1) A preliminary step in the characterization of an inhibitor is the determination of its IC50. The IC50 is the necessary concentration of an inhibitor to decrease the enzyme activity by 50% of its maximum and uninhibited value.
(§2) The compound, at different concentrations, is incubated with the enzyme and buffer for 30 minutes at 37° C. to allow formation of the Enzyme-Inhibitor complex. The reaction is initiated by addition of buffer and substrate, and then activity is measured over 15 minutes for the determination of initial velocities.
(§3) The enzyme and the inhibitor (or DMSO as control) are incubated for 30 minutes at 37° C. The complex thus formed is diluted to 100th in the buffer/substrate mixture and then the activity measurement is started over 20 minutes. The initial rate obtained for the DMSO represents the 100% activity and will serve as a reference for the quantification of the residual activity of the enzyme in the presence of the inhibitor.
(§4) The reaction is started over 20 minutes upon addition of the buffer-substrate mixture.
(§5) Initial velocity values in RFU·min^−1 are reduced to Specific Activity (SA)values (pmol/min/μg enzyme) from an AMC standard range (1 RFU→0.02 pmol).
(§6) The evolution of the ratio 1/SA as a function of 1/[S] makes it possible to obtain the so-called double-inverse graph of Lineweaver-Burk from equation 4 (eq.4) where Vmaxapp and KMapp are the parameters which vary according to the type inhibition and as a function of inhibitor concentration. The intersection of the lines obtained for increasing inhibitor concentrations makes it possible to distinguish different types of inhibitors.
A secondary graph, obtained from the values of the slopes of the Lineweaver-Burk plot as a function of the concentration of inhibitor, makes it possible to obtain the value of the Ki. Its value is given by the abscissa point at the origin.
The initial velocity V0 is expressed from equation 8 (eq.8), where Vmax is the maximum reaction rate (reached when the enzyme is saturated with substrate), [S] the substrate concentration, KM is the Michaelis-Menten constant (substrate concentration corresponding to Vmax/2), Ki is the dissociation constant which accounts for the affinity of the inhibitor for the enzyme.

The next assay deals with T2, Caspase-2 (Homo sapiens, UniProt P42575).
T2 construct: the Caspase-2 and Caspase-3 are human recombinant active enzymes; purchased Enzo Life ALX-201-057-U100
T2 sequence (P42575 170-325 limits assumed): T1 sequence (P42575 170-325 limits assumed)
T2 sequence (P42575 348-452 limits assumed): T1 sequence (P42575 348-452 limits assumed)
Put plainly: Caspase-2 inhibition assay for irreversible inhibitors (kinact/KI, continuous method). The class given is biochemical. As for the experimental part:
The efficiency of the comparative compound Δ2Me-TRP601, that is an already known group II Caspase inhibitor (inhibitor of Caspase-2, Caspase-3 and Caspase-7), has been assessed by a similar protocol described in Chauvier et al., 2011 Cell Death Dis 2011, 2:e203.
In this example, the Caspase-2 and Caspase-3 are human recombinant active enzymes that are respectively provided by Enzo Life® (ALX-201-057-U100) and R&D Systems® (707-C3-010/CF).
Caspase-2 is used at a final concentration of 0.1 nM in a “Caspase-2 buffer” containing 20 mM HEPES (pH 7.4), 5 mM DTT, 2 mM EDTA, 0.1% CHAPS and 800 mM succinate. Caspase-3 is used at a final concentration of 0.5 nM in a “Caspase-3 buffer” containing 20 mM HEPES (pH 7.4), 0.1% CHAPS, 5 mM DTT, and 2 mM EDTA.
The peptide substrates used for the enzymatic activity measurements are Ac-DEVD-AMC and Ac-VDVAD-AMC commercialized by EnzoLife® (respectively referenced ALX-260-031-M005 and ALX-260-060-M005). They are fluorogenic due to the presence of their AMC (7-amino-4-methylcoumarin) end group. The releasing of AMC enables to follow the enzymatic activity in fluorescence unit RFU over time in a 96-wells microplate.
The fluorescence values are measured at 37° C. with a spectrofluorometer with a microplate reader BMG FLUOstar OPTIMA. This apparatus is driven by the software Biolise® and is equipped with thermoelectric cooling device by Peltier effect. The mathematical analyses of the experimental data are done with the software Kaleidagraph®.
The inhibitory properties of the tested compounds are evaluated by the determination of the kinact/KI ratio regarding either Caspase-2 or Caspase-3 wherein: • kinact is the maximal inactivation rate constant, and • KI is the dissociation constant according to:
Said ratio is measured according to the continuous method (Allison R D. Curr Protoc Protein Sci. 2001 May; Chapter 3:Unit 3.5.; Chauvier et al., 2011 Cell Death Dis 2:e203; Tan et al., J Med Chem 2015, […]).
Briefly, Caspases activities were determined by monitoring the hydrolysis of fluorogenic substrates (λexc=355 nm, λem=460 nm) as a function of time, in the presence of untreated Caspases (control) or Caspases that had been incubated with a test compound, for 30 min minimum at 37° C. using a BMG Fluostar microplate reader (black 96-well microplates) and the initial velocity (V0) was determined from the linear portion of the progress curve.
Substrates and compounds were previously dissolved in DMSO at 10 mM, with the final solvent concentration kept at lower 4% (v/v). V0, relative velocities, KM and IC50 were determined from experimental data using Mars data Analysis 2.0 and Kaleidagraph softwares.
Inhibitor binding affinity (dissociation constant, KI) and first-order rate constant (k3) parameters were determined for Caspase-2 and Caspase-3 using the progress curve method. The ratio k3/KI was obtained by fitting the experimental data to the equations (F.U., fluorescence unit): […]
A continuous method of determination of the kinact/KI ratio was used for evaluating the inhibitory activity of the tested compounds against Caspase-2 and Caspase-3.
The reaction mixture is prepared by letting the enzyme and the buffer incubate at 37° C.
The tested inhibitory compounds are prepared at different concentrations (¼ IC50; ½ IC50; IC50; 2 IC50; 4 IC50) and put in the microplate.
Then the reaction mixture comprising the enzyme, the buffer and the substrate is rapidly added in the wells.
The activities of the enzyme are measured between 45 and 60 minutes.
The RFU (Relative Fluorescence Units)=f(times) curves are traced for each concentration of tested molecule according to the following equation: ((((−V0)*(exp(−kobs*m0)))+V0)/kobs*)+RFU0
in which: • V0 corresponds to the initial rate (RFU·s^−1) in the concentration of 0 of the tested inhibitory compound; • kobs is the inactivation rate constant; • RFU0 is the fluorescence value at t=0 min; and • m0 is the variable i.e. the inhibitor concentration.

The target in another assay is T3, Caspase-3 (Homo sapiens, UniProt P42574).
T3 construct: the Caspase-2 and Caspase-3 are human recombinant active enzymes; purchased R&D Systems 707-C3-010/CF
T3 sequence (P42574 29-175 limits assumed): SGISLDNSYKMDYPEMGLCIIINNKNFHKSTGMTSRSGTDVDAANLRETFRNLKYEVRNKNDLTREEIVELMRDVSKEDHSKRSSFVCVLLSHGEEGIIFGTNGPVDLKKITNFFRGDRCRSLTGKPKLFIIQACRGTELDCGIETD
T3 sequence (P42574 176-277 limits assumed): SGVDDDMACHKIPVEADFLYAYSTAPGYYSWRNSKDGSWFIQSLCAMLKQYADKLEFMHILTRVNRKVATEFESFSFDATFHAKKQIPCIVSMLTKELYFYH
Put plainly: Caspase-3 inhibition assay for reversible inhibitors (IC50, Ki). The class given is biochemical. The procedure:
as §1, §2, §3, §4, §5, §6
A secondary graph, obtained from the values of the slopes of the Lineweaver-Burk plot as a function of the concentration of inhibitor, makes it possible to obtain the value of the Ki. Its value is given by the abscissa point at the origin. […]

As for “Aβ alone: Oligomeric form of Aβ1-42 (Tocris Bioscience) used to intoxicate neurons [reference compound]”, the “decrease in synapse number” value in assay [1] was approximately 50%.

What is called IC50 is the concentration needed to halve the response being measured. Broadly, the Ki is the dissociation constant of the complex between target and ligand, obtained from inhibition or displacement. As for `CC(=O)N[C@@H](CC(=O)O)C(=O)N[C@@H](CCC(=O)O)C(=O)N[C@H](C(=O)N[C@H](C=O)CC(=O)O)C(C)C` [Ac-DEVD-CHO], on Casp-2, half-maximal inhibition (IC50) was put at 3910 ± 189 nM and the Ki is 3220 nM.

In the case of `CC(C)[C@H](NC(=O)c1ccc2ccccc2n1)C(=O)N[C@@H](CC(=O)O)C(=O)N[C@H](C(=O)N1CC[C@H](CC(C)(C)C)[C@H]1C(=O)N[C@@H](CC(=O)O)C(=O)COc1c(F)cccc1F)C(C)C` (single isomer, unassigned) [Compound 2 enantiomer b], the “k3/KI Casp2” value on Caspase-2 (human recombinant Caspase-2 0.1 nM, 37° C.) was 1 720 M^−1 · s^−1. The “Selectivity ratio (C2/C3) (symbol)” value on Caspase-2 (ratio of k3/KI Casp2 to Casp3) is reported as “+++ (+++: as no inhibitory activity is detectable toward casp3, selectivity is very important (>>1000).)”.

`CC(=O)N[C@H](C(=O)N[C@@H](CC(=O)O)C(=O)N[C@H](C(=O)N[C@@H](C)C(=O)N[C@H](C=O)CC(=O)O)C(C)C)C(C)C` [Ac-VDVAD-CHO] (Ac-VDVAD-aldehyde): the half-inhibitory concentration (IC50) against Caspase-3 (30 minutes at 37° C. preincubation) was determined as 7.23 nM. This compound also came in with a Ki on Caspase-3 (secondary plot of Lineweaver-Burk) of 7.68 nM. Further, on Casp-2, the “Selectivity Indexes (KiCasp3/KiCasp2)” value came out at 1.3, half-maximal inhibition (IC50) was put at 6.9 nM and the Ki was 6.31 nM.
